According to patent US20120088808A1, “CRYSTAL FORMS OF SAXAGLIPTIN” (SANDOZ AG, priority 2009, published 2012):
Structures can show the parent of a compound that is named as a salt. One block for each compound: values may come before it.

Columns and labels:
Format in all cases: physicochemical
[1] = Water content by the Karl Fischer method
Description: The water content is determined according to the Karl Fischer method.

[2] = Stability of the crystal form against relative humidity (polymorphic transformation); conditions: for relative humidity above which the form transforms to known Dihydrate H2-1: transformation not reversible, hydrochloride
Description: Infrared spectra (IR) were collected on a MKII Golden Gate™ Single Reflection Diamond ATR (attenuated total reflection) cell with a Bruker Tensor 27 FTIR spectrometer with 4 cm^−1 resolution. To collect a spectrum a spatula tip of a sample was applied to the surface of the diamond in powder form. Then the sample was pressed onto the diamond with a sapphire anvil and the spectrum was recorded. A spectrum of the clean diamond was used as background spectrum. A typical precision of the wavenumber values is in the range of about ±2 cm^−1. Thus, an infrared peak that appears at 1716 cm^−1 can appear between 1714 and 1718 cm^−1 on most infrared spectrometers under standard conditions. A sample was stored at 45-49% relative humidity for 12 hours.

[3] = Moisture sorption isotherm / water content at defined relative humidity, 25° C.
Description: The moisture sorption isotherm was recorded with a SPS-11 moisture sorption analyzer (MD Mess-technik, Ulm, D). The measurement cycle was started at 0% relative humidity (RH), increased in 10% steps up to 90% RH and in a 5% step up to 95% RH. The equilibrium condition for each step was set to a constant mass ±0.003% over 49 min. The temperature was 25±0.1° C.

[4] = Thermogravimetric analysis (mass / water loss)
Description: Thermogravimetric analysis was performed with the thermogravimetric system TGA-7 using the Pyris Software for Windows NT (Perkin-Elmer, Norwalk, Conn., USA), 50 μl platinum pans, nitrogen purge gas (sample purge: 20 ml min^−1, balance purge: 40 ml min^−1).

[5] = at 40% relative humidity at 25° C.

Water (KF) ([1]; after drying in vacuum oven at 50° C. about 10 hours, then about 80° C. for 5 hours): 0.7% | Water (KF) ([1]; sample stored at 45-49% relative humidity for 12 hours): 1.2% | change in the crystal form (FTIR) ([2]; after storage at 45-49% relative humidity for 12 hours): No change in the crystal form
Structure (SMILES): N#C[C@@H]1C[C@@H]2CC2N1C(=O)[C@@H](N)C12CC3CC(CC(O)(C3)C1)C2 (stereo partly drawn) [form HT-IV S, Saxagliptin hydrochloride]

relative humidity above which the form transforms to known Dihydrate H2-1 [2]: above 40 % relative humidity | water content (moisture sorption analysis) ([3]; at 0% relative humidity, process reversible): 12.8% | water content (moisture sorption analysis) [3, 5]: 13.1% | water corresponding to the water content [3, 5]: 2.94 mol of water | water corresponding to the TGA mass loss ([4]; up to 100° C.): 2.86 mol of water | mass loss by thermogravimetric analysis ([4]; up to 100° C., FIG. 11): about 12.8%
Structure (SMILES): N#C[C@@H]1C[C@@H]2CC2N1C(=O)[C@@H](N)C12CC3CC(CC(O)(C3)C1)C2 (stereo partly drawn) [form IV-S, Saxagliptin hydrochloride]

water loss based on thermogravimetric analysis ([4]; FIG. 6): not more than 0.5 % w/w
Structure (SMILES): N#C[C@@H]1C[C@@H]2CC2N1C(=O)[C@@H](N)C12CC3CC(CC(O)(C3)C1)C2 (stereo partly drawn) [form HT-S, Saxagliptin hydrochloride]

water content (Karl Fischer apparatus) ([1]; crystalline form as obtained in example 1): 1.2 % w/w | relative humidity at which the form is stable [2]: below 50 % relative humidity | relative humidity above which the form transforms to known Dihydrate H2-1 ([2]; listed as Form I-S): Above 50 % relative humidity | water content ([3]; at about 50% relative humidity at 25° C., reversible): about 1.5% | fate of the water when lowering the relative humidity ([3]; relative humidity at 25° C. lowered to about 0.5%, reversible on exposure to about 50% humidity): lost completely
Structure (SMILES): N#C[C@@H]1C[C@@H]2CC2N1C(=O)[C@@H](N)C12CC3CC(CC(O)(C3)C1)C2 (stereo partly drawn) [form I-S, Saxagliptin hydrochloride]
